In ChEMBL document CHEMBL1201862, “PubChem BioAssay data set” (2004):
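All cell lines were grown in 96-well plates and treated with compound for 48 hours. At the GI50, growth is halved.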 Activity calls are given as the source filed them. No stated cut-off is given here; in the data, active = GI50 up to about 1.1 µM and inactive = higher.

Assays:
Assay in all cases: inhibition of tumour cell growth, NCI panel, 48 h
[1] = test system: DMS-114
[2] = test system: RXF 631
[3] = test system: KM-20L2
[4] = test system: LXFL 529
[5] = test system: DLD-1
[6] = test system: Hs-578T
[7] = test system: PC-3
[8] = test system: MDA-MB-435

Measured: GI50

CCCCCCCCCCCCCCCC(=O)OC1C(O)C(CO)OC(OC)C1NC(=O)N(CCCl)N=O (stereo unspecified)
inactive: [1] 12.1 µM | [2] 16.8 µM | [3] 17.9 µM | [4] 12.6 µM | [5] 16.2 µM

CO/N=C1/c2sccc2[C@H](NC(=O)C(F)(F)F)[C@@H]1O
inactive: [6] > 100 µM | [7] > 100 µM | [8] > 100 µM

CCCCCCCCCOCC(COP(=O)([O-])OCC[N+](C)(C)C)OC (stereo unspecified)
inactive: [1] > 100 µM | [3] > 100 µM | [5] > 100 µM

COc1ccc(N2CN(C)CSC2=S)cc1
inactive: [6] > 100 µM | [7] > 100 µM | [8] 43.3 µM

CC(=O)CC(=O)CCC(=O)O [SUCCINYLACETONE]
inactive: [1] > 100 µM | [3] > 100 µM | [5] > 100 µM

O=C1CNC(=O)N1 [HYDANTOIN]
inactive: [1] > 1120 µM | [3] > 1120 µM | [5] > 1120 µM

COC(=O)Cc1c(-c2c(CC(=O)OC)c3ccccc3n2C2OC(COC(C)=O)C(OC(C)=O)C(OC(C)=O)C2OC(C)=O)[nH]c2ccccc12 (stereo unspecified)
inactive: [7] > 100 µM | [8] > 100 µM

O=C(N/N=C\c1cccc2ccccc12)Nc1ccccc1
inactive: [6] > 100 µM | [7] > 100 µM | [8] > 100 µM

CCCOC1OC(CS(=O)(=O)O)C(OC(C)=O)C(OC(C)=O)C1OC(C)=O (stereo unspecified)
inactive: [6] > 100 µM | [7] > 100 µM | [8] > 100 µM

Cc1ccc2c(=O)c3ccccc3sc2c1
inactive: [3] > 100 µM | [4] > 100 µM | [5] > 100 µM
